Data: article PMC4992173, “Divergent synthesis and identification of the cellular targets of deoxyelephantopins” (Nature Communications, 2016)

Biological target: T1, Thioredoxin domain-containing protein 12 (TXNDC12) (Homo sapiens, UniProt O95881)
T1 construct: endogenous in cells; host or cells: MCF7
Experiment: In situ competitive profiling in live MCF7 cells (LFQ): TXNDC12
Format: cell-based
Conditions: 4 h, then 10 µM 24c, n=4
Excerpt: In our efforts to determine the direct molecular targets of deoxyelephantopin we first performed a gel-based competitive in situ proteomic profiling assay[41] […] While the greater conformational flexibility of probe 24c could potentially lead to more promiscuous target engagement relatively to deoxyelephantopin, it was favoured based on the fact that an alkyne moiety appended to the rigid scaffold of deoxyelephantopin may hinder some of its interactions. MCF7 cells were pretreated with various concentrations of deoxyelephantopin for 4 h, harvested, lysed and the lysates were treated with the fluorogenic probe 24c-Cy3 (10 μM; Supplementary Fig. 10). […] Furthermore, cells were pretreated with 20 μM concentration of deoxyelephantopin or 24c and the proteomic profiles were compared (Fig. 6b, Supplementary Fig. 11). Multiple bands were detected that were equally competed by both DEP and 24c, thus again confirming that 24c can be used as an acceptable clickable analogue of deoxyelephantopin in pulldown assays. Having established the optimal labelling conditions by SDS–PAGE, we next carried out a mass spectrometry-based competitive profiling assay[42] coupled with the method of stable isotope labelling of amino acids in culture (SILAC)[43]. […]
Figure 6 Proteome-wide identification of deoxyelephantopin targets. […] Quantification was performed using label-free quantification (LFQ) method (n=4). […]

T1 sequence (O95881 27-172): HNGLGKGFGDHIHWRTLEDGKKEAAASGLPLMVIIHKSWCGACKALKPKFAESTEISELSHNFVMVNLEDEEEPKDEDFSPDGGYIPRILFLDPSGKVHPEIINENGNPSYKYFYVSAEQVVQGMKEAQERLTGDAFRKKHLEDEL

## C=C(C)C(=O)O[C@H]1CC2=C[C@@H](C/C(C)=C/[C@H]3OC(=O)C(=C)[C@H]13)OC2=O [deoxyelephantopin]
  LFQ ratio 20 µM Deoxyelephantopin/DMSO with 24c: 0.0425
